Laboratory results reported in ChEMBL document CHEMBL1124583, “New anticancer agents: chiral isomers of ethyl 5-amino-1,2-dihydro-2-methyl-3-phenylpyrido[3,4-b]pyrazine-7-car bamate ” (J Med Chem, 1989).

Key:
[1] = test system: L1210; assay: Inhibitory activity against lymphoid leukemia L1210 cells; assay type: functional, cell-based; details: Mus musculus
[2] = test system: L1210; assay: Mitotic index (fraction of cells in mitosis divided by total cells) in cultured lymphoid leukemia L1210 cells; assay type: functional, Mus musculus
[3] = test system: P388; assay: Increase in the life span of mice with P388 leukemia after the administration of the highest non toxic dose (30 mg/kg); assay type: functional; details: Mus musculus
[4] = test system: P388; assay: Increase in the life span of mice with P388 leukemia after the administration of the highest non toxic dose (1 mg/kg); assay type: functional; details: Mus musculus
[5] = test system: P388; assay: Increase in the life span of mice with P388 leukemia after the administration of the highest non toxic dose (2 mg/kg); assay type: functional, Mus musculus
[6] = test system: P388; assay: Increase in the life span of mice with P388 leukemia after the administration of the highest non toxic dose (0.5 mg/kg); assay type: functional, Mus musculus

Q: For `CCOC(=O)Nc1cc2c(c(N)n1)N=C(c1ccccc1)[C@@H](C)N2`, which IC50 [1] is on record?
A: Its IC50 is 17 nM.

Q: What about the MI0.5 [2] of the same molecule?
A: Its MI0.5 is 27 nM.

Q: What about the ILS at 30 mg/kg [3] of the same molecule?
A: The ILS at 30 mg/kg was 88%.

Q: What does the source list for `CCOC(=O)Nc1cc2c(c(N)n1)N=C(c1ccccc1)C(C)N2` (configuration not stated)?
A: IC50 [1]: 0.2 nM; MI0.5 [2]: 0.58 nM; ILS at 1 mg/kg [4]: 71%

Q: Which results are given for `CCOC(=O)Nc1cc2c(c(N)n1)N=C(c1ccccc1)CN2`?
A: IC50 [1]: 4.7 nM; Increase [5]: 51%; MI0.5 [2]: 2.8 nM

Q: Which IC50 [1] does the source give for `CCOC(=O)Nc1cc2c(c(N)n1)N=C(c1ccccc1)[C@H](C)N2` [MIVOBULIN] here?
A: Its IC50 is 0.094 nM.

Q: And the Increase [6]?
A: The Increase was 64%.

Q: What about the MI0.5 [2] of the same molecule?
A: Its MI0.5 is 0.14 nM.
